Assay results as given in patent US20150322033A1, “ANTIBACTERIAL AGENT” (priority 2012, published 2015).
Values after ≈ are worked out from the molar mass of the structure shown. Where two headings read alike, the source gives them in different places.

What was measured:
[1] = test system: S. aureus FDA209P (ATCC 6538P); assay: microbe, parasite or virus in culture; type: cell-based, Staphylococcus aureus; conditions: for MIC: Staphylococcus aureus, read-out: MIC (mg/L) FDA209P
Procedure: (§1) S. aureus Mu50 (refer to Hiramatsu, K., Hanaki H., et al., J. Antimicrob. Chemother., 1997, 40(1), 135-6) or S. aureus FDA209P (ATCC 6538P) was cultured overnight at 37° C. in 4 mL of TBS (Tryptical Soy Broth, produced by Becton Dickinson) with shaking. After completion of the culture, the cells were suspended in fresh TBS to prepare a cell suspension showing an absorbance of 0.3 at 578 nm. Then, the cell suspension was diluted 500 times with CAMHB mentioned above.
(§2) CAMHB containing each test compound at each of the aforementioned concentrations was added to each well of a 96-well plate in a volume of 50 μL/well, the aforementioned cell suspension diluted 500 time was added to the well in a volume of 50 μL/well, and stationary culture was carried out overnight at 37° C.
(§3) MIC values (mg/L) of the flavones and quinolones against the strains were measured in the same manner as that of the measurement of MIC of Example 1, except that CAMHB containing each of the aforementioned flavones and quinolones prepared in Example 2 was used instead of CAMHB containing each of the test compounds.
(§4) MIC values of the flavones and quinolone for the strains were measured in the same manners as those of Example 1, except that S. aureus Mu50 NR-1 was also used as Staphylococcus aureus in addition to S. aureus FDA209P and S. aureus Mu50, cell suspensions of the strains were prepared.
(§5) In the same manner as that of Example 1, MIC values of M-246, M-21, J-Q21, and J-Q12.1 for Staphylococcus aureus were measured. M-246 and M-21 were obtained as commercial products, and as J-Q21 and J-Q12.1, those synthesized in Examples 6 and 7 were used.

S. aureus Mu50 = assay: microbe, parasite or virus in culture; type: cell-based, Staphylococcus aureus; conditions: for MIC (mg/L) Mu50: Example 1, Tables 1 to 10; for MIC: Staphylococcus aureus, MU50, read-out: MIC (mg/L) Mu50, Example 1, Tables 1 to 10
Procedure: as §1, §2, §3, §4, §5

Compound	MIC (mg/L) FDA209P ([1]; Example 1, Tables 1 to 10) [mg/L]	MIC (mg/L) Mu50 (S. aureus Mu50) [mg/L]	MIC ([1]; Example 1, Tables 1 to 10) [mg/L]	other results
Cc1cc2c(cc1-c1c(C)oc3cc(O)cc(O)c3c1=O)OCCO2 [compound 87]	64 (≈ 188 µM)	128 (≈ 376 µM)		
COc1c2c(cc3occ(-c4ccc(O)cc4)c(=O)c13)OCO2 [compound 97]	128 (≈ 410 µM)	128 (≈ 410 µM)		
COc1cc2oc(-c3ccc(O)cc3)cc(=O)c2c(O)c1OC [compound 28]			> 128	MIC (S. aureus Mu50): > 128 mg/L
COc1cc(OC)c2c(=O)cc(-c3cc(OC)c(OC)c(OC)c3)oc2c1 [compound 43]			> 128	MIC (S. aureus Mu50): > 128 mg/L
COc1cc(OC)c2c(=O)cc(-c3ccccc3)oc2c1C1=COC(C)(C)C1=O [compound 46]			128 (≈ 326 µM)	MIC (S. aureus Mu50): > 128 mg/L
O=C(O)C1OC(Oc2ccc(-c3cc(=O)c4c(O)cc(O)cc4o3)cc2O)C(O)C(O)C1O (stereo not shown) [compound 67]	128 (≈ 277 µM)	128 (≈ 277 µM)		
O=C1CC(c2ccc(O)cc2)Oc2ccccc21 (stereo not shown) [compound 123, 4′-Hydroxyflavanone]			128 (≈ 533 µM)	MIC (S. aureus Mu50): 128 mg/L (≈ 533 µM)
O.Oc1cc(O)c2c(c1)OC(c1ccc(O)c(O)c1)C(O)C2 (stereo not shown) [compound 133, 3,3′,4′,5,7-Flavanpentol Hydrate]	128			MIC (mg/L) Mu50 (S. aureus Mu50; Hydrate): >128 mg/L
COc1cc(O)c(CN2CCCCC2C)c2oc(-c3ccccc3)cc(=O)c12 (stereo not shown) [compound 52]	>128	>128		
COc1cc(O)c(CN2CCCCC2)c2oc(-c3ccccc3)cc(=O)c12 [compound 48]	128 (≈ 350 µM)	>128		
COc1cc(OC2OC(CO)C(O)C(O)C2O)c2c(=O)c(-c3ccc(O)cc3)coc2c1 (stereo not shown) [compound 96]	128 (≈ 287 µM)	128 (≈ 287 µM)		
O=c1c(-c2ccc3c(c2)OCCO3)coc2cc(O)cc(O)c12 [compound 106]	64 (≈ 205 µM)	64 (≈ 205 µM)		
COc1ccc(-c2cc(=O)c3c(OC)c(OC)c(OC)cc3o2)cc1OC [compound 42]			> 128	MIC (S. aureus Mu50): > 128 mg/L
COc1cc(-c2[o+]c3cc(O)cc(O)c3cc2O)cc(OC)c1O [compound 130]	128	128		
O=C1CC(c2ccccc2)Oc2ccccc21 (stereo not shown) [compound 126]			128 (≈ 571 µM)	MIC (S. aureus Mu50): 128 mg/L (≈ 571 µM)
O=c1c(-c2ccc(O)cc2O)coc2cc(O)cc(O)c12 [compound 101]			128 (≈ 447 µM)	MIC (S. aureus Mu50): 128 mg/L (≈ 447 µM)
O=c1c(O)c(-c2ccc(O)cc2O)oc2cc(O)cc(O)c12 [compound 3]	>128	>128		
Cc1c(-c2ccccc2)oc2c(C(=O)OCCN3CCCCC3)cccc2c1=O [compound 55]			128 (≈ 327 µM)	MIC (S. aureus Mu50): > 128 mg/L
O=c1cc(-c2ccc(OC3OC(CO)C(O)C(O)C3O)cc2)oc2cc(O)cc(O)c12 (stereo not shown) [compound 63]	128 (≈ 296 µM)	128 (≈ 296 µM)		
COc1c(O)cc2oc(-c3ccc(O)cc3)cc(=O)c2c1O [compound 26]				MIC [1]: > 128 mg/L
Cc1c(O)cc(O)c2c(=O)cc(-c3ccccc3)oc12 [compound 8]	>128			
COc1cc(O)c(CN2CCCC(C)C2)c2oc(-c3ccccc3)cc(=O)c12 (stereo not shown) [compound 53]	128 (≈ 337 µM)			
2-phenylchromen-4-one (2-phenyl-1-benzopyran-4-one) [No. 25, reference compound]				MIC (mg/L) Mu50 (S80F, S84L) (S. aureus Mu50; Example 3, Table 13): 64 mg/L
COc1cc(O)c2c(=O)c(-c3cc4c(cc3C)OCCO4)c(C)oc2c1 [compound 86]	>128			
COc1ccc(-c2cc(=O)c3c(OC)c(OC)c(OC)c(OC)c3o2)cc1OC [compound 10]	128 (≈ 318 µM)			
CCc1oc2cc(O)cc(O)c2c(=O)c1-c1ccc(OC)cc1 [compound 90]			128 (≈ 410 µM)	
COc1cc(-c2oc3c(OC)c(OC)c(OC)c(OC)c3c(=O)c2OC)cc2c1OCO2 [compound 35]	>128			
